In patent US12507703B2, “Methods, devices and compositions for preserving human milk” (The Trustees of Princeton University, priority 2023, dated 2025):
Where “and” joins values, the source holds several entries; their conditions need not be identical. Identical values can stand only once. Where a SMILES comes first, the peptide text is derived from it.

Test system: lipase
Experiment: Lipase/lipolysis assay (EnzChek Lipase Substrate, quenched BODIPY-fatty acid conjugate) on stored human milk; on Lipase (RFU): test concentration or dose not given here

First: COc1cc(CC(=O)C(=O)O)ccc1O [Vanilpyruvic acid]
Second: O=C(C=Cc1ccc(O)c(O)c1)OC1CC(O)(C(=O)O)CC(O)C1OC(=O)C=Cc1ccc(O)c(O)c1 (centres unmarked) [4,5-Dicaffeoylquinic acid]
The “Lipase (RFU)” value of the first is higher: 1086.418 RFU for the first, 1065.884 RFU for the second.

First: O=C(/C=C/c1ccc(O)cc1)NCCc1ccc(O)cc1 [N-p-trans-Coumaroyltyramine]
Second: Oc1cc(O)c2c(c1)O[C@@]1(c3ccc(O)c(O)c3)Oc3cc(O)c4c(c3[C@@H]2[C@H]1O)O[C@H](c1ccc(O)c(O)c1)[C@H](O)[C@H]4c1c(O)cc(O)c2c1O[C@H](c1ccc(O)c(O)c1)[C@H](O)C2 [Cinnamtannin B-1]
The “Lipase (RFU)” value of the first is higher: 1082.731 RFU for the first, 1061.374 RFU for the second.

Compared with `CC(C)=CCC[C@@](C)(O)[C@H]1CC[C@]2(C)[C@@H]1[C@H](O)C[C@@H]1[C@@]3(C)CC[C@H](O)C(C)(C)[C@@H]3CC[C@]12C` [(20R)-Protopanaxadiol], `CC1(C)CC[C@]2(C(=O)O[C@@H]3O[C@H](CO)[C@@H](O)[C@H](O)[C@H]3O)CC[C@]3(C)C(=CC[C@@H]4[C@@]5(C)CC[C@H](O[C@@H]6O[C@H](C(=O)O)[C@@H](O[C@@H]7O[C@@H](CO)[C@H](O)[C@H]7O)[C@H](O)[C@H]6O)C(C)(C)[C@@H]5CC[C@]43C)[C@@H]2C1` [Araloside A] is lower in “Lipase (RFU)” value: 1067.282 RFU for the first, 938.5227 RFU for the second.

Compared with `CC(=O)NCCCC[C@H](N)C(=O)O` [Nepsilon-Acetyl-L-lysine], `CCC1CCC(=O)O1` (centres unmarked) [γ-Hexalactone] is lower in “Lipase (RFU)” value: 1188.891 RFU for the first, 1020.576 RFU for the second.

Compared with `C/C(=C\CNc1ncnc2c1ncn2[C@@H]1O[C@H](CO)[C@@H](O)[C@H]1O)CO` [trans-Zeatinriboside], `COc1cc2c(cc1OC)[C@@H]1C(=O)c3ccc4c(c3O[C@@H]1CO2)C=CC(C)(C)O4` [Deguelin] is higher in “Lipase (RFU)” value: 823.084 RFU for the first, 955.3932 RFU for the second.

First: O=C(O)C[C@@H](O)C(=O)O [D-Malic Acid]
Second: OC[C@H]1O[C@@H](O[C@H]2[C@H](O)[C@@H](O)[C@@H](O)O[C@@H]2CO)[C@H](O)[C@@H](O)[C@H]1O [α-Lactose]
The “Lipase (RFU)” value of the first is lower: 752.7528 RFU for the first, 963.7922 RFU for the second.

Going from `O=C1O[C@H]2[C@@H]3OC(=O)c4cc(O)c(O)c(O)c4-c4c(O)c(O)c5oc(=O)c6c(c(O)c(O)c7oc(=O)c4c5c76)-c4c(cc(O)c(O)c4O)C(=O)OC[C@H]3OC(O)[C@@H]2OC(=O)c2cc(O)c(O)c(O)c2-c2c1cc(O)c(O)c2O` (mixture of isomers) [Punicalagin] to `C[C@@H]1NC(=O)N[C@@H]1CCCCCC(=O)O` [D-Desthiobiotin], the “Lipase (RFU)” value rises from 646.9241 RFU to 791.1157 RFU.

Compared with `Cc1cc(O)c(C)c2c1O[C@](C)(CCC[C@H](C)CCC[C@H](C)CCCC(C)C)CC2` (relative stereo) [(rel)-β-Tocopherol], `COc1ccc2c(c1)OC(O)C(=O)N2O` (centres unmarked) [DIMBOA] is lower in “Lipase (RFU)” value: 1146.301 RFU for the first, 910.6705 RFU for the second.

Going from `C[C@H](CC(=O)C[C@@H](C)[C@H]1C[C@H](O)[C@@]2(C)C3=C(C(=O)C[C@]12C)[C@@]1(C)CCC(=O)C(C)(C)[C@@H]1C[C@@H]3O)C(=O)O` [Ganoderic acid A] to `CC(C)=CCC/C(C)=C/CC/C(C)=C/CC/C(C)=C/CC1=C(C)C(=O)c2ccccc2C1=O` [Menaquinone-4], the “Lipase (RFU)” value rises from 685.8921 RFU to 987.2266 RFU.

First: O=C(O)C(O)C(O)C(=O)O (racemic) [DL-Tartaric acid]
Second: CC[C@H]1OC(=O)C[C@@H](O)[C@H](C)[C@@H](O[C@@H]2O[C@H](C)[C@@H](O[C@H]3C[C@@](C)(O)[C@@H](O)[C@H](C)O3)[C@H](N(C)C)[C@H]2O)[C@@H](CC=O)C[C@@H](C)C(=O)/C=C/C(C)=C/[C@@H]1CO[C@@H]1O[C@H](C)[C@@H](O)[C@@H](OC)[C@H]1OC [Tylosin (phosphate)]
The “Lipase (RFU)” value of the first is lower: 1079.017 RFU for the first, 1132.19 RFU for the second.

Compared with Xylan, `C[N+](C)(C)CCOP(=O)(O)O.[Cl-]` [Phosphorylcholine (chloride)] is lower in “Lipase (RFU)” value: 1273.332 RFU for the first, 831.0181 RFU for the second.

Going from `OC[C@H]1O[C@@H]2O[C@H]3[C@H](O)[C@@H](O)[C@@H](O[C@H]4[C@H](O)[C@@H](O)[C@@H](O[C@H]5[C@H](O)[C@@H](O)[C@@H](O[C@H]6[C@H](O)[C@@H](O)[C@@H](O[C@H]7[C@H](O)[C@@H](O)[C@@H](O[C@H]8[C@H](O)[C@@H](O)[C@@H](O[C@H]1[C@H](O)[C@H]2O)O[C@@H]8CO)O[C@@H]7CO)O[C@@H]6CO)O[C@@H]5CO)O[C@@H]4CO)O[C@@H]3CO` [β-Cyclodextrin] to `O=c1ccc2cc(O[C@@H]3O[C@H](CO)[C@@H](O)[C@H](O)[C@H]3O)c(O)cc2o1` [Esculin], the “Lipase (RFU)” value rises from 886.2621 RFU to 1207.652 RFU.

First: CCCCOC(=O)c1ccc(O)cc1 [Butylparaben]
Second: CC(C)=CCC[C@](C)(O)[C@H]1CC[C@]2(C)[C@@H]1[C@H](O)C[C@@H]1[C@@]3(C)CC[C@H](O)C(C)(C)[C@@H]3[C@@H](O[C@@H]3O[C@H](CO)[C@@H](O)[C@H](O)[C@H]3O)C[C@]12C [Ginsenoside Rh1]
The “Lipase (RFU)” value of the first is higher: 948.3985 RFU for the first, 665.2277 RFU for the second.

First: NC(=O)[C@@H]1CCCN1C(=O)[C@H](Cc1ccccc1)NC(=O)[C@@H]1CCCN1C(=O)[C@@H](N)Cc1ccc(O)cc1 [Morphiceptin] (H-YPFP-NH2)
Second: CCCCCC(O)/C=C/C=O (centres unmarked) [Compound 4-Hydroxynonenal, 4-Hydroxynonenal]
The “Lipase (RFU)” value of the first is higher: 1251.045 RFU for the first, 827.4103 RFU for the second.

Compared with `O=c1cc(-c2ccccc2)oc2cc(O)cc(O[C@@H]3O[C@H](CO)[C@@H](O)[C@H](O)[C@H]3O)c12` [Toringin], `N[C@@H](CSCSC[C@H](N)C(=O)O)C(=O)O` [L-Djenkolic Acid] is lower in “Lipase (RFU)” value: 1102.623 RFU for the first, 317.7642 RFU for the second.

Compared with `C[C@@H]1O[C@@H](O[C@H]2[C@H](Oc3c(-c4ccc(O)c(O)c4)oc4cc(O)cc(O)c4c3=O)O[C@H](CO)[C@@H](O)[C@@H]2O)[C@H](O)[C@H](O)[C@H]1O` [Quercetin 3-O-neohesperidoside], `C=C1CC[C@]2(C)CC[C@]3(C)[C@H](CC[C@@H]4[C@@]5(C)CC[C@H](O)C(C)(C)[C@@H]5CC[C@]43C)[C@H]2[C@@H]1C` [Taraxasterol] is higher in “Lipase (RFU)” value: 838.5308 RFU for the first, 974.5848 RFU for the second.

Compared with Lactate, `O=C(CO)[C@@H](O)[C@H](O)[C@@H](O)CO` [L-Sorbose] is lower in “Lipase (RFU)” value: 1249.686 RFU for the first, 1197.031 RFU for the second.

Going from Curdlan to `CC1=CCC(=O)O1` [α-Angelica lactone], the “Lipase (RFU)” value rises from 876.416 RFU to 1137.248 RFU.

For `OC[C@H]1O[C@H](O[C@H]2O[C@H](CO)[C@@H](O)[C@H](O)[C@H]2O)[C@H](O)[C@@H](O)[C@@H]1O` [D-(+)-Trehalose], the “Lipase (RFU)” value was 893.2005 RFU and 909.0228 RFU.
`O.O=P([O-])([O-])OC1C(OP(=O)([O-])[O-])C(OP(=O)([O-])[O-])C(OP(=O)([O-])[O-])C(OP(=O)([O-])[O-])C1OP(=O)([O-])[O-].[Na+].[Na+].[Na+].[Na+].[Na+].[Na+].[Na+].[Na+].[Na+].[Na+].[Na+].[Na+]` (centres unmarked) [Phytic acid (dodecasodium hydrate)] was tested, and the “Lipase (RFU)” value was 1018.084 RFU and 920.5233 RFU.
For `N=C(N)NCCC[C@H](N)C(=O)O` [L-Arginine], the “Lipase (RFU)” value was 753.4686 RFU and 980.9809 RFU and 913.1858 RFU.
Rhamnose was tested, and the “Lipase (RFU)” value was 816.2993 RFU and 1253.305 RFU.

In the case of `N[C@@H](CSCSC[C@H](N)C(=O)O)C(=O)O` [L-Djenkolic Acid], the “Hit in lipase inhibition screen (in words)” value is reported as “significantly inhibited lipase activity”.
